Test results taken from ChEMBL document CHEMBL1201862, “PubChem BioAssay data set” (2004).
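A five-concentration, 48-hour dose response in 96-well plates underlies each endpoint, interpolated linearly between surrounding concentrations. Abbreviation: GI50, concentration required for 50% inhibition of growth.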 The source made the active and inactive calls. No stated cut-off is given here; in the data, active = GI50 up to about 1.1 µM and inactive = higher.

Legend:
Test in all cases: NCI anticancer screen, dose series, 48 h
IGROV-1 = system: IGROV-1
SK-MEL-2 = system: SK-MEL-2
HT-29 = system: HT-29
NCI-H522 = system: NCI-H522
Hs-578T = system: Hs-578T
UACC-257 = system: UACC-257
MOLT-4 = system: MOLT-4
DU-145 = system: DU-145
EKVX = system: EKVX
LOX IMVI = system: LOX IMVI
MDA-MB-231 = system: MDA-MB-231
SF-268 = system: SF-268
U-251 = system: U-251
NCI-H23 = system: NCI-H23
KM12 = system: KM12
MCF7 = system: MCF7
CCRF-CEM = system: CCRF-CEM
786-0 = system: 786-0
MDA-N = system: MDA-N
HOP-62 = system: HOP-62
SR = system: SR
OVCAR-3 = system: OVCAR-3
ACHN = system: ACHN
OVCAR-4 = system: OVCAR-4
HCC 2998 = system: HCC 2998
SNB-19 = system: SNB-19
PC-3 = system: PC-3
MDA-MB-435 = system: MDA-MB-435
NCI-H226 = system: NCI-H226
SF-539 = system: SF-539
BT-549 = system: BT-549
Malme-3M = system: Malme-3M
SN12C = system: SN12C
UACC-62 = system: UACC-62
HCT-116 = system: HCT-116
SW-620 = system: SW-620
RPMI-8226 = system: RPMI-8226
OVCAR-8 = system: OVCAR-8
SK-OV-3 = system: SK-OV-3
OVCAR-5 = system: OVCAR-5
SK-MEL-5 = system: SK-MEL-5
TK-10 = system: TK-10
K562 = system: K562
HCT-15 = system: HCT-15
COLO 205 = system: COLO 205
HL-60 = system: HL-60
M14 = system: M14
UO-31 = system: UO-31
HOP-92 = system: HOP-92
A549 = system: A549
T47D = system: T47D
SNB-75 = system: SNB-75
CAKI-1 = system: CAKI-1
SF-295 = system: SF-295
NCI/ADR-RES = system: NCI/ADR-RES

Compound: COC1CC(OC2C(C)OC(OC3C(C)OC(OC4C(O)CC(O[C@H]5CC[C@@]6(C)C(=CC[C@]7(O)[C@@H]6C[C@@H](OC(=O)/C=C/c6ccccc6)[C@@]6(C)[C@]7(O)CC[C@@]6(O)C(C)=O)C5)OC4C)CC3OC)CC2OC)OC(C)C1O (stereo not given in full)
- GI50 (IGROV-1): > 6.25 µM (inactive)
- GI50 (SK-MEL-2): > 6.25 µM (inactive)
- GI50 (HT-29): > 6.25 µM (inactive)
- GI50 (NCI-H522): > 6.25 µM (inactive)
- GI50 (Hs-578T): > 6.25 µM (inactive)
- GI50 (UACC-257): > 6.25 µM (inactive)
- GI50 (MOLT-4): > 6.25 µM (inactive)
- GI50 (DU-145): > 6.25 µM (inactive)
- GI50 (EKVX): > 6.25 µM (inactive)
- GI50 (LOX IMVI): > 6.25 µM (inactive)
- GI50 (MDA-MB-231): > 6.25 µM (inactive)
- GI50 (SF-268): > 6.25 µM (inactive)
- GI50 (U-251): > 6.25 µM (inactive)
- GI50 (NCI-H23): > 6.25 µM (inactive)
- GI50 (KM12): > 6.25 µM (inactive)
- GI50 (MCF7): > 6.25 µM (inactive)
- GI50 (CCRF-CEM): > 6.25 µM (inactive)
- GI50 (786-0): > 6.25 µM (inactive)
- GI50 (MDA-N): > 6.25 µM (inactive)
- GI50 (HOP-62): > 6.25 µM (inactive)
- GI50 (SR): > 6.25 µM (inactive)
- GI50 (OVCAR-3): > 6.25 µM (inactive)
- GI50 (ACHN): > 6.25 µM (inactive)
- GI50 (OVCAR-4): > 6.25 µM (inactive)
- GI50 (HCC 2998): > 6.25 µM (inactive)
- GI50 (SNB-19): > 6.25 µM (inactive)
- GI50 (PC-3): > 6.25 µM (inactive)
- GI50 (MDA-MB-435): > 6.25 µM (inactive)
- GI50 (NCI-H226): > 6.25 µM (inactive)
- GI50 (SF-539): > 6.25 µM (inactive)
- GI50 (BT-549): > 6.25 µM (inactive)
- GI50 (Malme-3M): > 6.25 µM (inactive)
- GI50 (SN12C): > 6.25 µM (inactive)
- GI50 (UACC-62): > 6.25 µM (inactive)
- GI50 (HCT-116): > 6.25 µM (inactive)
- GI50 (SW-620): > 6.25 µM (inactive)
- GI50 (RPMI-8226): > 6.25 µM (inactive)
- GI50 (OVCAR-8): > 6.25 µM (inactive)
- GI50 (SK-OV-3): > 6.25 µM (inactive)
- GI50 (OVCAR-5): > 6.25 µM (inactive)
- GI50 (SK-MEL-5): > 6.25 µM (inactive)
- GI50 (TK-10): > 6.25 µM (inactive)
- GI50 (K562): > 6.25 µM (inactive)
- GI50 (HCT-15): > 6.25 µM
- GI50 (COLO 205): > 6.25 µM (inactive)
- GI50 (HL-60): > 6.25 µM (inactive)
- GI50 (M14): > 6.25 µM (inactive)
- GI50 (UO-31): 4.52 µM (inactive)
- GI50 (HOP-92): > 6.25 µM (inactive)
- GI50 (A549): > 6.25 µM (inactive)
- GI50 (T47D): > 6.25 µM (inactive)
- GI50 (SNB-75): > 6.25 µM (inactive)
- GI50 (CAKI-1): > 6.25 µM (inactive)
- GI50 (SF-295): > 6.25 µM (inactive)
- GI50 (NCI/ADR-RES): > 6.25 µM (inactive)
